Molecular target: T1, Tyrosine-protein phosphatase non-receptor type 1 (Homo sapiens) (UniProt P18031)
T1 sequence (whole entry): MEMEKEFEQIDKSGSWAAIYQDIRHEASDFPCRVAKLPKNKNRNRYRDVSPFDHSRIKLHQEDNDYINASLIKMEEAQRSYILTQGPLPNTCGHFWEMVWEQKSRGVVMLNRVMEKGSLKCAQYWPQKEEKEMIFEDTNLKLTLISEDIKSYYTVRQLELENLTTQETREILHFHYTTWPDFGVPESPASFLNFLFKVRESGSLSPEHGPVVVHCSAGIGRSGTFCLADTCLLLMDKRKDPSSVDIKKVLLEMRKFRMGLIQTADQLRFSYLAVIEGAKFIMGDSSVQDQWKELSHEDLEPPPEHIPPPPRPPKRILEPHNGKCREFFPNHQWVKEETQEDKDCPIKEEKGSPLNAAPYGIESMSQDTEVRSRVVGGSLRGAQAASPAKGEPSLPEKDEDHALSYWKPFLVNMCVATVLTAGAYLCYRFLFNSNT
Assay: Binding affinity for protein tyrosine phosphatase 1B

Affinity: 86 µM
Compound: NCc1ccc(NC(=O)C(=O)O)cc1

Reference: ChEMBL document CHEMBL1141172, “Fragment-based lead discovery using X-ray crystallography” (J Med Chem, 2005)
